Results from patent US9629843B2, “MTOR modulators and uses thereof” (The Regents of the University of California, priority 2008, dated 2017).
“Also recorded” adds a separate entry of the source.

Assays:
[1] = tested on: Akt, S6, 4EBP1 phosphorylation in tissues; assay: In vivo effect on insulin signaling in fat, skeletal muscle and liver of mice; set-up: species or system C57BL/6 mice
[2] = Pharmacokinetics of PP242; details: in vivo
[3] = tested on: Akt phosphorylation (S473, T308) in MEFs; assay: Akt phosphorylation in wild-type and SIN1−/− mouse embryonic fibroblasts (immunoblot); assay type: cell-based
Method: Wild-type and SIN1−/− primary mouse embryonic fibroblasts (MEFs) were grown in DMEM supplemented with about 10% FBS, glutamine and penicillin/streptomycin. MEFs were treated with TORKinib at about 2.5, 0.63, and 0.16 uM; rapamycin at approximately 15 nM; or PIK-90 at 625 nM for 30 minutes prior to insulin stimulation (e.g. 100 nM) for 10 minutes. Cells were lysed by scraping into ice cold lysis buffer (typically 300 mM NaCl, 50 mM Tris pH 7.5, 5 mM EDTA, 1% TRITON™ X-100, 0.02% NaN3, 20 nM microcystin, Sigma phosphatase inhibitor cocktails 1 and 2, Roche protease inhibitor cocktail and 2 mM PMSF). After contacting cells with lysis buffer, the solution was briefly sonicated. Lysates were cleared by centrifugation, resolved by SDS-PAGE, transferred to nitrocellulose and immunoblotted using antibodies to phospho-Akt S473, phospho-Akt T308, Akt, and β-actin (Cell Signaling Technologies).

[4] = tested on: Akt substrates (GSK3, TSC2, FoxO1/O3a) in L6 myotubes; assay: Phosphorylation of Akt substrates in insulin stimulated L6 myotubes; assay type: cell-based; details: FIG. 6
[5] = tested on: Akt phosphorylation (S473, T308) in L6 myotubes; assay: Akt phosphorylation in insulin stimulated L6 myotubes (immunoblot); assay type: cell-based; details: 100 nM insulin, FIG. 3
Method: L6 myoblasts were grown typically grown in DMEM supplemented with about 10% FBS, glutamine and penicillin/streptomycin. Confluent L6 myoblasts were differentiated into mytubes by culturing them for approximately 5 days in media containing about 2% FBS. L6 myotubes were maintained in media containing approximately 2% FBS until use.
In order to compare the effect of TORKinibs and PIK-90 on Akt phosphorylation, L6 myotubes were serum starved overnight and incubated with inhibitors or about 0.1% DMSO for approximately 30 minutes prior to stimulation with insulin (e.g. 100 nM) for about 10 minutes. Cells were lysed by scraping into ice cold lysis buffer (generally: 300 mM NaCl, 50 mM Tris pH 7.5, 5 mM EDTA, 1% TRITON™ X-100, 0.02% NaN3, 20 nM microcystin, Sigma phosphatase inhibitor cocktails 1 and 2, Roche protease inhibitor cocktail and 2 mM PMSF). After contacting cells with lysis buffer, the solution was briefly sonicated. Lysates were cleared by centrifugation, resolved by SDS-PAGE, transferred to nitrocellulose and immunoblotted using antibodies to phospho-Akt S473, phospho-Akt T308, Akt, and β-actin (Cell Signaling Technologies).

[6] = tested on: S6K, S6, 4EBP1 phosphorylation in L6 myotubes; assay: Phosphorylation of S6K, S6 and 4EBP1 in insulin stimulated L6 myotubes; assay type: cell-based
Tolerability in mice = assay type: in vivo; details: 10, 30 or 100 mg/kg, four times or twice daily, p.o.
p70S6K phosphorylation = p70S6K phosphorylation in mpkCCD cells; assay type: cell-based
[7] = tested on: mTORC2/AKT and mTORC1 signaling; assay: mTORC2/AKT and mTORC1 signaling in p190 cells (western blot); assay type: cell-based; details: FIGS. 38A-38B
Method: Western blots of p190 cells treated for 1.5 hr (a) or 3 hr (b) with indicated inhibitors are depicted in FIG. 38A and FIG. 38B. […] Clinically achievable concentrations of IM (1.0 μM) and DA (100 nM) were used for the combination treatments. See also FIGS. 40A-40B. Activation of PI3K was quantified in cells by signal pixel intensity and localized area of PIP3 accumulation by confocal microscopy, as depicted in FIG. 38C. […] A minimum of 250 cells was quantified from 2 separate images. […] Representative images depict PIP3 accumulation, nuclear content (DAPI stain) merged onto DIC images (13.5 μm scale bar). […] Autophagy (LC3 puncta accumulation), loss of proliferation (EdU accumulation), and distinct localization patterns of Foxo1 were assessed by confocal microscopy and representative cells were magnified for clarity. Cytoplasmic localization of Foxo1 corresponds to AKT activation, whereas nuclear accumulation signifies AKT inhibition.

SGK1 pS422 = assay: HM (pS422) phosphorylation of flag-tagged SGK1 in HEK293 cells; assay type: cell-based, Human; details: insulin, FIG. 28C
[8] = tested on: Akt-S473 and S6 phosphorylation in T cells; assay: Phosflow of anti-CD3 stimulated murine splenocytes; assay type: cell-based
[9] = tested on: cap-dependent translation; assay: Cap-dependent translation, m7GTP affinity, p190 cells; assay type: cell-based; details: IM at 5 μM; FIG. 38D
4EBP1 binding to eIF-4E = assay: m7GTP cap pull-down assay in L6 myotubes; assay type: cell-based; details: insulin stimulated L6 myotubes; FIG. 10
[10] = tested on: p70S6K, 4EBP1 phosphorylation in MEFs; assay: Phosphorylation of 70S6K and 4EBP1 in mouse embryonic fibroblasts; assay type: cell-based; details: wild-type and SIN1−/− MEFs; FIG. 11
Method: Wild-type and SIN1−/− primary mouse embryonic fibroblasts (MEFs) were grown in DMEM supplemented with about 10% FBS, glutamine and penicillin/streptomycin. MEFs were treated with TORKinib at approximately 2.5, 0.63, and 0.16 uM; rapamycin at about 15 nM; or PIK-90 at about 625 nM for approximately 30 minutes prior to insulin stimulation (e.g. 100 nM) for about 10 minutes. Cells were lysed by scraping into ice cold lysis buffer (generally: 300 mM NaCl, 50 mM Tris pH 7.5, 5 mM EDTA, 1% TRITON™ X-100, 0.02% NaN3, 20 nM microcystin, Sigma phosphatase inhibitor cocktails 1 and 2, Roche protease inhibitor cocktail and 2 mM PMSF). After contacting cells with lysis buffer, the solution was briefly sonicated. Lysates were cleared by centrifugation, resolved by SDS-PAGE, transferred to nitrocellulose and immunoblotted using antibodies to phospho-p70S6K T389, phospho-4EBP1 T37/46, phospho-4EBP1 S65, and β-actin (Cell Signaling Technologies).

Tolerability in rats = assay type: in vivo; details: 10, 30 or 100 mg/kg, four times or twice daily, p.o.
[11] = tested on: myristolated-Akt transgenic thymocytes tumors; assay: Akt murine allograft tumor model; assay type: in vivo, NOD/SCID mice
[12] = tested on: PI3K signaling (PIP3 accumulation); assay: PIP3 accumulation in p190 cells by confocal microscopy; assay type: cell-based; details: 20 and 200 nM, 4 hr; FIG. 38C
[13] = Genetic toxicology (mini-Ames test)
[14] = Metabolic stability in microsome and cellular assays; assay type: in vitro ADME
SGK1 phosphorylation = SGK1 phosphorylation in mpkCCD cells (mobility shift immunoblot); assay type: cell-based; details: at a concentration of 0.3 μM
[15] = tested on: ENaC-dependent Na+ current; assay: ENaC-dependent Na+ transport in mpkCCD cells
[16] = tested on: ENaC-dependent Na+ current

CC(C)n1nc(-c2cc3cc(O)ccc3[nH]2)c2c(N)ncnc21 [PP242]
S6 phosphorylation ([1]; all tissues examined): equally inhibited | phosphorylation of 4EBP1 on T37/46 and S65 ([1]; all tissues examined): effective at blocking | phosphorylation of Akt at S473 and T308 ([1]; fat and liver, i.p., insulin stimulated mice): completely inhibit | phosphorylation of Akt ([1]; skeletal muscle): only partially able to inhibit | clearance [2]: moderate | volume of distribution [2]: good | oral bioavailability (F %) ([2]; po): 30-70% | phosphorylation of Akt T308 ([3]; SIN1−/− MEFs): has no effect | phosphorylation of Akt at S473 and T308 ([3]; wild-type MEFs): inhibits the phosphorylation of Akt at both S473 and T308 | phosphorylation of Akt and its substrates [4]: partially inhibited | insulin stimulated phosphorylation of Akt at S473 and T308 [5]: inhibit insulin stimulated phosphorylation of Akt at S473 | phosphorylation of 4EBP1 at S65 [6]: fully inhibits | phosphorylation of 4EBP1 at T70 [6]: neither rapamycin nor TORKinib affect | phosphorylation of 4EBP1 at T37/46 ([6]; listed as TORKinib): fully inhibits; also recorded: able to inhibit | tolerability (Tolerability in mice): tolerated | p70S6K phosphorylation (p70S6K phosphorylation): eliminated the band detected by anti-phospho p70S6K antibody | mTORC2/AKT and mTORC1 signaling in B-ALL [7]: completely inhibits mTORC2/AKT and mTORC1 signaling | pS422-SGK1 band (SGK1 pS422): abrogated | anti-CD3 mediated phosphorylation of Akt-S473 [8]: inhibits | anti-CD3 mediated phosphorylation of S6 [8]: inhibits | cap-dependent translation [9]: inhibit cap-dependent translation | retention of 4EBP1 on eIF-4E (m7GTP pull-down) (4EBP1 binding to eIF-4E): caused a greater retention of 4EBP1 | phosphorylation of p70S6K and 4EBP1 [10]: more complete inhibitor of 4EBP1 phosphorylation under the conditions tested than rapamycin | tolerability (Tolerability in rats): tolerated | tumor growth ([11]; PP242 100 mg/kg, rapamycin 5 mg/kg, gavage daily, 20 days): no tumor growth | body weight ([11]; after 20 days of treatment): maintained body weight | PI3K signaling (PIP3 accumulation) [12]: had no significant effect | genetic toxicology (mini-Ames test) [13]: clean profile | metabolic stability [14]: metabolically stable | phosphorylation of SGK1 (SGK1 phosphorylation): completely abolished | T1/2 of effect on Na+ current ([15]; FIG. 29B): approximately 15 minutes | amiloride-sensitive Na+ current ([15]; at a concentration of 0.3 μM): completely abolished | aldosterone-induced Na+ current ([15]; mpkCCD cells): completely blocked aldosterone-induced current | toxic effect of prolonged treatment [16]: diminishes electrical resistance and causes morphological changes
